Experiments:
[1] = test system: patients with pancreatic cancer; experiment: Swedish nation-wide register study, cancer specific survival of antihistamine users vs non-users: pancreatic cancer; format: in vivo, human; conditions: for effect of use on pancreatic cancer survival: users vs non-users, in words
Protocol: (§1) Both peri- and post-diagnostic antihistamine use was analyzed, using Cox regression models, as well as different subgroups of patients with regard to age, gender (as a proxy for sex) and tumor status.
(§2) Material and methods Linking the Cancer Registry with the Drug Prescription Registry and Cause of Death Registry the survival of over 500 000 cancer patients with cancer in the breast-, prostate, ventrikel, pancreas, kidney, colo-rectal, lung, uterus, ovary, brain, melanoma, lymph gland and bone marrow was studied between 2005-2014.
(§3) Use of the six major antihistamines was established using the Swedish Prescribed Drug Register, a record of all dispensed prescribed pharmaceuticals in Sweden since July 1st 2005. To be included in the registry at least 2 weeks of prescription is required. Prescription free antihistamine use, non-dispensed doses, or use of other, less common, types of antihistamines is here considered non-use. Causes of death were obtained from the Swedish Cause of Death Register, a database where all deaths have been recorded since 1952. Data was pseudo-anonymized and the study was approved by the Regional Ethics Board.
(§4) We analyzed both the peri- and cumulative post-diagnostic use of antihistamines among […]. Peri-diagnostic use was a proxy for ever-use, and is here defined as use within six months pre-diagnosis and six months post-diagnosis, where the main antihistamine (in terms of dispensed defined daily doses, or DDDs) used by each individual during this time was identified. The analysis was done using a Cox regression model with time to even or censoring in years as a time scale. Subgroup analyses were made for groups based on age and gender (as a proxy for sex).
(§5) For the cumulative post-diagnostic antihistamine use analysis, mortality rates for antihistamine users were compared to those of non-users through a Cox regression model allowing for time varying covariates, and survival time was measured in years since diagnosis. […] The impact of the cumulative DDDs was assessed after log transformation of the DDDs plus one3. […]

[2] = test system: patients with gastric cancer; experiment: Swedish nation-wide register study, cancer specific survival of antihistamine users vs non-users: gastric cancer; format: in vivo, human; conditions: for effect of use on gastric cancer survival: users vs non-users, in words
Protocol: as §1, §2, §3, §4, §5

[3] = test system: patients with ovarian cancer; experiment: Swedish nation-wide register study, cancer specific survival of antihistamine users vs non-users: ovarian cancer; format: in vivo, human; conditions: for effect of use on ovarian cancer survival: users vs non-users, in words
Protocol: as §1, §2, §3, §4
(§6) For the cumulative post-diagnostic antihistamine use analysis, mortality rates for antihistamine users were compared to those of non-users through a Cox regression model allowing for time varying covariates, and survival time was measured in years since diagnosis. This allowed for a single individual to provide data as both a non-user and user of different antihistamines. The impact of the cumulative DDDs was assessed after log transformation of the DDDs plus one3. Cox regression analyses were stratified for patient age at diagnosis, tumor size and node status (T and N status, respectively). A lag-time analysis was performed as described by Tamim et al. and Richardson et al. Statistical analyses were performed using R version XXX6.
(§7) Information on stage, socio-economic factors, tumour therapies, and prognostic tumour factors are not present in the national registries.
(§8) The confidence interval (95% CI) indicates the level of uncertainty around the measure of effect. A 95% confidence interval means that the confidence interval covers the true value in 95 of 100 studies performed. […]

all tumour types = experiment: Swedish nation-wide register study, cancer specific survival of antihistamine users vs non-users: across tumour types; format: in vivo, human; conditions: for effect of use on survival, all tumour types: users vs non-users, in words
Protocol: as §1, §2, §3, §4, §6, §7, §8

breast cancer [4] = experiment: Swedish nation-wide register study, cancer specific survival of antihistamine users vs non-users: breast cancer; format: in vivo, human; conditions: in words
Protocol: as §1, §2
Use of the six major antihistamines was established using the Swedish Prescribed Drug Register, a record of all dispensed prescribed pharmaceuticals in Sweden since July 1st 2005. To be included in the registry at least 2 weeks of prescription is required. […] Causes of death were obtained from the Swedish Cause of Death Register, a database where all deaths have been recorded since 1952. […]
We analyzed both the peri- and cumulative post-diagnostic use of antihistamines among melanoma patients. […]
as §5

breast cancer [5] = conditions: earlier filing, in words; cited from earlier work
[6] = test system: patients with lung cancer; experiment: Swedish nation-wide register study, cancer specific survival of antihistamine users vs non-users: lung cancer; format: in vivo, human
[7] = test system: patients with prostate cancer; experiment: Swedish nation-wide register study, cancer specific survival of antihistamine users vs non-users: prostate cancer; format: in vivo, human; conditions: in words
Protocol: (§9) For the cumulative post-diagnostic antihistamine use analysis, mortality rates for antihistamine users were compared to those of non-users through a Cox regression model allowing for time varying covariates, and survival time was measured in years since diagnosis. This allowed for a single individual to provide data as both a non-user and user of different antihistamines. The impact of the cumulative DDDs was assessed after log transformation of the DDDs plus one3. Cox regression analyses were stratified for patient age at diagnosis, tumor size and node status (T and N status, respectively). […]

[8] = test system: patients with colo-rectal cancer; experiment: Swedish nation-wide register study, cancer specific survival of antihistamine users vs non-users: colorectal cancer; format: in vivo, human
[9] = test system: patients with Hodgkin's disease; experiment: Swedish nation-wide register study, cancer specific survival of antihistamine users vs non-users: Hodgkin's disease; format: in vivo, human
[10] = test system: patients with brain cancer; experiment: Swedish nation-wide register study, cancer specific survival of antihistamine users vs non-users: brain cancer; format: in vivo, human; conditions: in words
[11] = test system: patients with uterus cancer; experiment: Swedish nation-wide register study, cancer specific survival of antihistamine users vs non-users: uterine cancer; format: in vivo, human; conditions: in words
[12] = test system: lympho-hematopoetic malignancies; experiment: Swedish nation-wide register study, cancer specific survival of antihistamine users vs non-users: lympho-hematopoetic malignancies; format: in vivo, human; conditions: in words
Protocol: as §9

For `O=C(O)COCCN1CCN(C(c2ccccc2)c2ccc(Cl)cc2)CC1` (stereo not shown) [Ceterizine, cetirizine], the “effect of use on pancreatic cancer survival” value [1] was “better survival”, the “effect of use on gastric cancer survival” value [2] was “better survival” and the “effect of use on ovarian cancer survival” value [3] was “better survival”.
For `CN1CCC[C@@H]1CCO[C@](C)(c1ccccc1)c1ccc(Cl)cc1` [Clemastine, clemastine], the “effect of use on survival, all tumour types” value (all tumour types) was “consistently showed a worse survival”.
For `CC(C)(C)c1ccc(C(=O)CCCN2CCC(OC(c3ccccc3)c3ccccc3)CC2)cc1` [Ebastine, ebastine], the “effect of use on breast cancer survival” value (breast cancer [4]) is given as “increased breast cancer survival” and the “effect on breast cancer survival (WO 2016/116438)” value (breast cancer [5]) is given as “positive effect”.
With `Clc1ccc2c(c1)CCc1cccnc1C2=C1CCNCC1` [desloratadine] the “5 year survival chance increased by (lung cancer)” value ([6]; lung cancer, baseline 5 year survival about 20% 2016, FIG. 1) was 15%, the “effect of use on lung cancer survival” value ([6]; users vs non-users, in words) was “consistently beneficial effect” and the “effect of use on prostate cancer survival” value [7] was “consistently beneficial effect”. For the same compound, the “5 year survival chance increased by (pancreatic cancer)” value ([1]; pancreatic cancer, baseline 5 year survival about 8% 2016, FIG. 1) was 35%, the “effect of use on pancreatic cancer survival” value [1] was “consistently beneficial effect” and the “5 year survival chance increased by (gastric cancer)” value ([2]; gastric cancer, baseline 5 year survival 25% 2016, FIG. 1) was 30%. The “effect of use on gastric cancer survival” value [2] was “consistently beneficial effect”, the “5 year survival chance increased by (ovarian cancer)” value ([3]; ovarian cancer, baseline 5 year survival about 55% 2016, FIG. 1) was 17% and the “effect of use on ovarian cancer survival” value [3] was “consistently beneficial effect”. For the same compound, the “5 year survival chance increased by (colorectal cancer)” value ([8]; colorectal cancer, baseline 5 year survival about 65% 2016, FIG. 1) was 15%, the “effect of use on colorectal cancer survival” value ([8]; users vs non-users, in words) was “consistently beneficial effect” and the “5 year survival chance increased by (Hodgkin's disease)” value ([9]; Hodgkin's disease, baseline 5 year survival about 86% 2016, FIG. 1) was 17%. The “effect of use on Hodgkin's disease survival” value ([9]; users vs non-users, in words) was “strong survival benefit”, the “effect of use on breast cancer survival” value (breast cancer [4]) was “consistently beneficial effect” and the “effect of use on brain cancer survival” value [10] was “no effect”. The “effect of use on uterine cancer survival” value [11] was “no effect”, the “effect of use on survival in lympho-hematopoetic malignancies” value [12] was “no effect” and the “curative effect suggested by survival curves” value (all tumour types; said cancers, survival curves with follow up parallel to non-treated, FIGS. 7 to 18) was 10-20%. The “effect on breast cancer survival (WO 2016/116438)” value (breast cancer [5]) was “positive effect”.
With `CC(C)(C(=O)O)c1ccc(C(O)CCCN2CCC(C(O)(c3ccccc3)c3ccccc3)CC2)cc1` (stereo not shown) [fexofenadine] the “effect of use on survival, all tumour types” value (all tumour types) was “insignificant”.
With `CCOC(=O)N1CCC(=C2c3ccc(Cl)cc3CCc3cccnc32)CC1` [loratadine] the “effect of use on ovarian cancer survival” value [3] was “survival was better” and the “course of survival curves relative to non-users” value (all tumour types; FIGS. 7 to 18, in words) was “most survival curves became parallel to non-users suggesting a long time curative effect”.

Source: patent US20240226083A9, “MEDICAMENT FOR TREATMENT AND/OR PROPHYLACTIC TREATMENT OF CANCERS” (Belina Pharma AB, priority 2019, published 2024)
